Holding throughout (format): in vivo
Assay [1] concerns Alopecurus myosuroides (ALOMY). Kind of assay: Pre-emergence herbicidal activity (B1). The conditions noted are these: Test 1a, 1000 g/ha, evaluated after 13 days, 5=total damage to plant, 0=no damage to plant. The gist of the method: (§1)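 Glasshouse pre-emergence spray test: compound in acetone/water (50:50), 0.5% Tween 20, applied one day after sowing; plants kept at 24/16 °C day/night, 14 h light, 65% humidity, then scored 0–5 for damage after 13 days.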

The subject of assay [2] is Avena fatua (AVEFA). Kind of assay: Pre-emergence herbicidal activity (B1). The conditions noted are these: Test 1a, 1000 g/ha, evaluated after 13 days, 5=total damage to plant, 0=no damage to plant. The gist of the method:
as §1

Assay [3] relates to Echinochloa crus-galli (ECHCG). Kind of assay: Pre-emergence herbicidal activity (B1). The conditions noted are these: Test 1a, 1000 g/ha, evaluated after 13 days, 5=total damage to plant, 0=no damage to plant. The essentials: as §1
Assay [4] has as its system Lolium perenne (LOLPE). Briefly: Pre-emergence herbicidal activity (B1). The conditions noted are these: Test 1a, 1000 g/ha, evaluated after 13 days, 5=total damage to plant, 0=no damage to plant. The gist of the method: as §1
Assay [5] has as its system Setaria faberi (SETFA). Briefly: Pre-emergence herbicidal activity (B1). The conditions noted are these: Test 1a, 1000 g/ha, evaluated after 13 days, 5=total damage to plant, 0=no damage to plant. The essentials: as §1
The test system of assay [6] is Triticum aestivium (TRZAW). Briefly: Pre-emergence herbicidal activity (B1). The conditions noted are these: Test 1a, 1000 g/ha, evaluated after 13 days, 5=total damage to plant, 0=no damage to plant. The gist of the method: as §1
The test system of assay [7] is Alopecurus myosuroides (ALOMY). Briefly: Post-emergence herbicidal activity (B2). The conditions noted are these: Test B2a, 1000 g/ha, evaluated after 13 days, 5=total damage to plant, 0=no damage to plant. The essentials: (§2)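 Visual injury rating (0–5 scale, 5 = total damage) 13 days after post-emergence foliar spray of 8-day-old glasshouse-grown plants; formulation acetone/water 50:50 with 0.5% Tween 20.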

The test system of assay [8] is Avena fatua (AVEFA). Briefly: Post-emergence herbicidal activity (B2). The conditions noted are these: Test B2a, 1000 g/ha, evaluated after 13 days, 5=total damage to plant, 0=no damage to plant. The gist of the method:
as §2

Assay [9] deals with Echinochloa crus-galli (ECHCG). Kind of assay: Post-emergence herbicidal activity (B2). The conditions noted are these: Test B2a, 1000 g/ha, evaluated after 13 days, 5=total damage to plant, 0=no damage to plant. The essentials: as §2
Assay [10] has as its system Lolium perenne (LOLPE). Briefly: Post-emergence herbicidal activity (B2). The conditions noted are these: Test B2a, 1000 g/ha, evaluated after 13 days, 5=total damage to plant, 0=no damage to plant. The gist of the method:
as §2

In assay [11] the test system is Setaria faberi (SETFA). Kind of assay: Post-emergence herbicidal activity (B2). The conditions noted are these: Test B2a, 1000 g/ha, evaluated after 13 days, 5=total damage to plant, 0=no damage to plant. The essentials: as §2
Assay [12] has as its system Triticum aestivium (TRZAW). Briefly: Post-emergence herbicidal activity (B2). The conditions noted are these: Test B2a, 1000 g/ha, evaluated after 13 days, 5=total damage to plant, 0=no damage to plant. The gist of the method:
as §2

The text below walks through data of US10986838B2, “Herbicides” (SYNGENTA PARTICIPATIONS AG, priority 2016, dated 2021).

As to `Fc1cncc(-c2ccc(NCC3CCCCC3)c(C(F)(F)F)n2)c1` [Compound A52], the ALOMY damage score in [1] and in assay [7] was 0 throughout. Besides, the AVEFA damage score worked out at 1 with Avena fatua (AVEFA) [2] and 3 with Avena fatua (AVEFA) [8]. Besides, the ECHCG damage score in [3] and in [9] was 3 each time. Moreover, the LOLPE damage score with Lolium perenne (LOLPE) [4] worked out at 1; in the assay on Lolium perenne (LOLPE) [10], 3. In addition, the SETFA damage score in the assay on Setaria faberi (SETFA) [5] and with Setaria faberi (SETFA) [11] was 5 each time. The TRAZW damage score in [6] and in assay [12] was 0 each time.
Consider `CC(C)CCNc1ccc(-c2cncc(F)c2)nc1C(F)(F)F` [Compound A53], for which the ALOMY damage score in assay [1] and in assay [7] was 1 throughout. The AVEFA damage score turned out to be 1 with Avena fatua (AVEFA) [2] and 3 with Avena fatua (AVEFA) [8]. The values for the ECHCG damage score in assay [3] and in assay [9] were 4 and 5, respectively. In addition, the LOLPE damage score with Lolium perenne (LOLPE) [4] came out at 2; with Lolium perenne (LOLPE) [10], 3. In addition, the SETFA damage score in the assay on Setaria faberi (SETFA) [5] and with Setaria faberi (SETFA) [11] was 5 in each case. The TRAZW damage score in assay [6] and in assay [12] was 1 in each case.
Turning to `CCCCCNc1ccc(-c2cncc(F)c2)nc1C(F)(F)F` [Compound A54], the ALOMY damage score in assay [1] and in assay [7] was 0 in each case. Moreover, the AVEFA damage score in the assay with Avena fatua (AVEFA) [2] is on record as 1; in the assay with Avena fatua (AVEFA) [8], 3. For the same compound, the ECHCG damage score in [3] and in [9] was 3 each time. Also, the LOLPE damage score with Lolium perenne (LOLPE) [4] is on record as 1; with Lolium perenne (LOLPE) [10] it was 2. The SETFA damage score with Setaria faberi (SETFA) [5] and in the assay on Setaria faberi (SETFA) [11] was 5 in each case. For the same compound, the TRAZW damage score in assay [6] and in assay [12] was 0 each time.
Turning to `Fc1cncc(-c2ccc(NCc3cc4ccccn4n3)c(C(F)(F)F)n2)c1` [Compound A55], the ALOMY damage score was 0 in assay [1] and 1 in assay [7]. The values for the AVEFA damage score in the assay with Avena fatua (AVEFA) [2] and in the assay with Avena fatua (AVEFA) [8] were 2 and 4, respectively. Moreover, the ECHCG damage score in assay [3] and in assay [9] was 5 each time. For the same compound, the LOLPE damage score in the assay on Lolium perenne (LOLPE) [4] is 1; with Lolium perenne (LOLPE) [10], 3. For the same compound, the SETFA damage score with Setaria faberi (SETFA) [5] and with Setaria faberi (SETFA) [11] was 5 each time. Also, the TRAZW damage score in assay [6] amounted to 0; in assay [12], 2.
With `Fc1cncc(-c2ccc(NCc3nccs3)c(C(F)(F)F)n2)c1` [Compound A56], the ALOMY damage score worked out at 0 in assay [1] and 1 in [7]. The values for the AVEFA damage score in the assay with Avena fatua (AVEFA) [2] and in the assay on Avena fatua (AVEFA) [8] were 2 and 4, respectively. In addition, the ECHCG damage score was determined as 4 in [3] and 5 in assay [9]. The LOLPE damage score in the assay with Lolium perenne (LOLPE) [4] amounted to 1; in the assay with Lolium perenne (LOLPE) [10], 3. Further, the SETFA damage score in the assay with Setaria faberi (SETFA) [5] and in the assay with Setaria faberi (SETFA) [11] was 5 throughout. The TRAZW damage score in [6] and in assay [12] was 1 throughout.
For `Fc1cncc(-c2ccc(NCc3cscn3)c(C(F)(F)F)n2)c1` [Compound A57], the ALOMY damage score in assay [1] and in [7] was 1 each time. In addition, the AVEFA damage score in the assay with Avena fatua (AVEFA) [2] is 3; in the assay with Avena fatua (AVEFA) [8], 4. Besides, the ECHCG damage score in assay [3] and in [9] was 5 each time. Further, the LOLPE damage score in the assay on Lolium perenne (LOLPE) [4] stood at 1; with Lolium perenne (LOLPE) [10], 4. Moreover, the SETFA damage score with Setaria faberi (SETFA) [5] and in the assay on Setaria faberi (SETFA) [11] was 5 each time. Further, the TRAZW damage score turned out to be 0 in [6] and 2 in [12].
Take `Cn1ccc(CNc2ccc(-c3cncc(F)c3)nc2C(F)(F)F)n1` [Compound A59]: the ALOMY damage score was 0 in [1] and 1 in assay [7]. Also, the AVEFA damage score in the assay with Avena fatua (AVEFA) [2] and in the assay with Avena fatua (AVEFA) [8] was 3 in each case. Also, the values for the ECHCG damage score in assay [3] and in assay [9] were 4 and 5, respectively. The LOLPE damage score stood at 1 with Lolium perenne (LOLPE) [4] and 3 in the assay with Lolium perenne (LOLPE) [10]. For the same compound, the SETFA damage score in the assay on Setaria faberi (SETFA) [5] and with Setaria faberi (SETFA) [11] was 5 each time. For the same compound, the TRAZW damage score in [6] is 0; in [12], 2.
Take `Fc1cncc(-c2ccc(NCc3cnco3)c(C(F)(F)F)n2)c1` [Compound A60]: the values for the ALOMY damage score in [1] and in assay [7] were 0 and 1, respectively. Besides, the AVEFA damage score in the assay on Avena fatua (AVEFA) [2] and with Avena fatua (AVEFA) [8] was 3 each time. Besides, the ECHCG damage score in [3] and in assay [9] was 5 in each case. The LOLPE damage score turned out to be 1 with Lolium perenne (LOLPE) [4] and 4 with Lolium perenne (LOLPE) [10]. Also, the SETFA damage score with Setaria faberi (SETFA) [5] and in the assay on Setaria faberi (SETFA) [11] was 5 throughout. Also, the results for the TRAZW damage score in assay [6] and in [12] were 0 and 2, respectively.
For `CN1CCN(c2ccc(-c3cncc(F)c3)nc2C(F)(F)F)CC1` [Compound A61], the ALOMY damage score in assay [1] was 0; in assay [7], 1. Further, the AVEFA damage score with Avena fatua (AVEFA) [2] is given as 2; in the assay on Avena fatua (AVEFA) [8], 3. The values for the ECHCG damage score in [3] and in assay [9] were 4 and 5, respectively. For the same compound, the LOLPE damage score is given as 0 with Lolium perenne (LOLPE) [4] and 2 with Lolium perenne (LOLPE) [10]. Moreover, the SETFA damage score with Setaria faberi (SETFA) [5] and in the assay on Setaria faberi (SETFA) [11] was 5 in each case. Further, the TRAZW damage score is 0 in assay [6] and 1 in [12].
In the case of `Fc1cncc(-c2ccc(N3CC(F)(F)C(F)(F)C3)c(C(F)(F)F)n2)c1` [Compound A62], the ALOMY damage score in assay [1] and in assay [7] was 0 in each case. For the same compound, the AVEFA damage score was 1 in the assay with Avena fatua (AVEFA) [2] and 3 with Avena fatua (AVEFA) [8]. Further, the ECHCG damage score in assay [3] and in assay [9] was 3 in each case. Also, the LOLPE damage score in the assay with Lolium perenne (LOLPE) [4] is listed as 0; in the assay on Lolium perenne (LOLPE) [10], 2. Also, the SETFA damage score in the assay on Setaria faberi (SETFA) [5] and in the assay with Setaria faberi (SETFA) [11] was 5 in each case. In addition, the TRAZW damage score in assay [6] and in assay [12] was 0 in each case.
On to `Fc1cncc(-c2ccc(N3CCC3)c(C(F)(F)F)n2)c1` [Compound A63], for which the ALOMY damage score in assay [1] and in [7] was 0 each time. Moreover, the AVEFA damage score in the assay with Avena fatua (AVEFA) [2] is 0; in the assay on Avena fatua (AVEFA) [8] it was 3. The ECHCG damage score in assay [3] was 2; in assay [9] it was 3. The results for the LOLPE damage score in the assay on Lolium perenne (LOLPE) [4] and in the assay with Lolium perenne (LOLPE) [10] were 0 and 2, respectively. Besides, the SETFA damage score with Setaria faberi (SETFA) [5] and with Setaria faberi (SETFA) [11] was 5 in each case. Further, the TRAZW damage score in assay [6] and in [12] was 0 each time.
`Fc1cncc(-c2ccc(N3CCCC3C(F)(F)F)c(C(F)(F)F)n2)c1` (stereo not drawn) [Compound A64]: the ALOMY damage score in assay [1] and in assay [7] was 0 each time. The figures for the AVEFA damage score in the assay with Avena fatua (AVEFA) [2] and in the assay on Avena fatua (AVEFA) [8] were 0 and 1, respectively. Further, the figures for the ECHCG damage score in [3] and in [9] were 1 and 2, respectively. Also, the LOLPE damage score with Lolium perenne (LOLPE) [4] and with Lolium perenne (LOLPE) [10] was 0 in each case. For the same compound, the SETFA damage score in the assay on Setaria faberi (SETFA) [5] stood at 1; with Setaria faberi (SETFA) [11], 4. The TRAZW damage score in [6] and in [12] was 0 each time.
